Assay type in all cases: biochemical
In one assay the target is T1, AKT (Homo sapiens, UniProt Q9Y243).
T1 construct: Kinases are expressed as either kinase domains or full length constructs; made in house
Description: Kinase inhibition assay (33P transfer), AKT. The note with it: Table 2, kinase inhibition class; read-out: AKT3-1. The gist of the method: (§1)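 Recombinant kinase-domain or full-length fusion proteins (GST or His tag) served as enzyme. Substrate poly(Glu,Tyr) 4:1 or poly(Arg,Ser) 3:1 was bound to the plate; transferred 33P was read by liquid scintillation following acid washing.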

The next assay deals with T2, ErbB2 (Homo sapiens, UniProt P04626).
T2 construct: Kinases are expressed as either kinase domains or full length constructs; made in house
Description: Kinase inhibition assay (33P transfer), ErbB2. Conditions: read-out: ErbB2-2. The gist of the method:
(§2)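 Recombinant kinase domains or full-length GST- or His-tagged constructs, from E. coli or baculovirus/High Five cells, sometimes with regulatory polypeptides. Transfer of 33P from ATP to plate-bound poly(Glu,Tyr) 4:1 or poly(Arg,Ser) 3:1 counted by liquid scintillation after phosphoric acid wash; IC50 is the concentration halving incorporation.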

In another assay the target is T3, IGFR-1 (Homo sapiens, UniProt P08069).
T3 construct: Kinases are expressed as either kinase domains or full length constructs; made in house
As to the kind of experiment: Kinase inhibition assay, IGFR-1 (Table 2). Conditions: Table 2, kinase inhibition class.

The target of a further assay is T4, Zap-70 (Homo sapiens, UniProt P43403).
T4 construct: Kinases are expressed as either kinase domains or full length constructs; made in house
T4 sequence (P43403 1-619): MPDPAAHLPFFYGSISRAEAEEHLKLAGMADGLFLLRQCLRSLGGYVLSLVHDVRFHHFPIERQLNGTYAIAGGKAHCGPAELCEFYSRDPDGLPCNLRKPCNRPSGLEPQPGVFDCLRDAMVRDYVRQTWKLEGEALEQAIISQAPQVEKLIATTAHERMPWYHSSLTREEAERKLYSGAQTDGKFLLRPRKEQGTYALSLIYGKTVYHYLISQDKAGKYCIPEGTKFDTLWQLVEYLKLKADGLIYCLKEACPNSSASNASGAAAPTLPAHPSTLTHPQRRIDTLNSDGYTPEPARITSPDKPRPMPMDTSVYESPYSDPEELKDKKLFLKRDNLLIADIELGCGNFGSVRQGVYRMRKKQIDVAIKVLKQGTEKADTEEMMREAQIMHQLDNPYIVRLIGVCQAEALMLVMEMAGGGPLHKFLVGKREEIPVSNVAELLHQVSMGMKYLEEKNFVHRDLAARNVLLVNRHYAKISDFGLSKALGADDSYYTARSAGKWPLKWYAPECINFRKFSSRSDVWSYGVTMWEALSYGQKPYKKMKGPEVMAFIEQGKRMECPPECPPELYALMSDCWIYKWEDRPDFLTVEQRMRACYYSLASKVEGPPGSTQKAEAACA
Description: Kinase inhibition assay (33P transfer), Zap-70. Conditions: read-out: Zap-1. In outline:
as §1

A further assay concerns the target T5, Lck (Homo sapiens, UniProt P06239).
T5 construct: Kinases are expressed as either kinase domains or full length constructs; made in house
As to the kind of experiment: Kinase inhibition assay (33P transfer), Lck. Conditions: read-out: Lck-1. The gist of the method:
as §1

The next assay concerns the target T6, Itk (Homo sapiens, UniProt Q08881).
T6 construct: Kinases are expressed as either kinase domains or full length constructs; made in house
T6 sequence (Q08881 1-620): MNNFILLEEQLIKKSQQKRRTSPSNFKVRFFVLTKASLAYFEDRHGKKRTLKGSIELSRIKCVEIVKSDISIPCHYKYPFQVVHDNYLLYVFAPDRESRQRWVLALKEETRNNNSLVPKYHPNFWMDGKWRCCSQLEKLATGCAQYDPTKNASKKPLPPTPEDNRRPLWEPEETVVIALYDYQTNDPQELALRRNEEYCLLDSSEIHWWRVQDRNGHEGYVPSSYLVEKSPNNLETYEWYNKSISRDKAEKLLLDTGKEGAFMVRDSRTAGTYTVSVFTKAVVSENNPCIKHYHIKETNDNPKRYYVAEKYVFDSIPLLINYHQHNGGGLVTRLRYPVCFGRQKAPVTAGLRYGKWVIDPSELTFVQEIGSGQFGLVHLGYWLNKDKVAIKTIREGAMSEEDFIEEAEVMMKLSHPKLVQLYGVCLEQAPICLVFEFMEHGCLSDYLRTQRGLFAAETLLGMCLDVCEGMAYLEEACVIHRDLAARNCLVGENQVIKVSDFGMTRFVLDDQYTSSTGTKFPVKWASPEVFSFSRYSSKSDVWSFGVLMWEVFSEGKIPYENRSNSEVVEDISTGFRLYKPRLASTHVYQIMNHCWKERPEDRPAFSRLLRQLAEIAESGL
Description: Kinase inhibition assay (33P transfer), Itk. Conditions: read-out: Itk-1. The gist of the method:
as §2

The target of a further assay is T7, EGFR (Homo sapiens, UniProt P00533).
T7 construct: Kinases are expressed as either kinase domains or full length constructs; made in house
T7 sequence (P00533 25-1210, species assumed): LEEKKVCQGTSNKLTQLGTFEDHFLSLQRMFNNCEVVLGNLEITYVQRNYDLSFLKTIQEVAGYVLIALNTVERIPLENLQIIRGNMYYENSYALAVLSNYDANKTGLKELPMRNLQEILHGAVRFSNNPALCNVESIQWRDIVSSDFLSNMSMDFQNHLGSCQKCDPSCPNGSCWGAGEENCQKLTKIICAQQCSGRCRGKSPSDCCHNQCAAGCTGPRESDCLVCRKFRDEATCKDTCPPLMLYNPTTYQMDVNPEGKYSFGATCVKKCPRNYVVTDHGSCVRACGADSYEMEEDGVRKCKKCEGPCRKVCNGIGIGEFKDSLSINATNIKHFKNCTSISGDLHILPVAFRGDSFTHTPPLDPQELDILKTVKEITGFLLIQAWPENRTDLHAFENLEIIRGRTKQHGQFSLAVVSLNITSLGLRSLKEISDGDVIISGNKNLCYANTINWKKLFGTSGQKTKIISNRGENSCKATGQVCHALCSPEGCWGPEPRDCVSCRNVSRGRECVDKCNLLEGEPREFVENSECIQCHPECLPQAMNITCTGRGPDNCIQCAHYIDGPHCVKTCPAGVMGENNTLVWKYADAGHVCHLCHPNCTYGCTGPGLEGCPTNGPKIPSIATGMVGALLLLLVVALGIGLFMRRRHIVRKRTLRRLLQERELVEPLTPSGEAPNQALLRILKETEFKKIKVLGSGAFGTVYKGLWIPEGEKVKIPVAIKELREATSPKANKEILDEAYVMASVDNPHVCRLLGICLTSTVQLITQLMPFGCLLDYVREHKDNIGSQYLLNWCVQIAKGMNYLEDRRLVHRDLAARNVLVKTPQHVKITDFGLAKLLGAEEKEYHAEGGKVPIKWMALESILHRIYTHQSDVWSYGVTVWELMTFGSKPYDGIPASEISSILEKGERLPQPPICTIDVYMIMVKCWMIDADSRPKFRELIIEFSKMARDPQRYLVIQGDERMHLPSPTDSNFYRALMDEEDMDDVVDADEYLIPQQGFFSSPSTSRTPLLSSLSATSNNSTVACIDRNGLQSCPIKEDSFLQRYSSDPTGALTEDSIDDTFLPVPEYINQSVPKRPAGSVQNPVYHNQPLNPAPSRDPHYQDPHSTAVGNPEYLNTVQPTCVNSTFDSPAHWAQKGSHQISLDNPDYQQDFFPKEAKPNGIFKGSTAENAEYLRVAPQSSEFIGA
Description: Kinase inhibition assay (33P transfer), EGFR. The note with it: Table 2, kinase inhibition class; read-out: EGFR-1. In outline: as §2

The target in the next assay is T8, c-Met (Homo sapiens, UniProt P08581).
T8 construct: Kinases are expressed as either kinase domains or full length constructs; made in house
T8 sequence (P08581 25-1390): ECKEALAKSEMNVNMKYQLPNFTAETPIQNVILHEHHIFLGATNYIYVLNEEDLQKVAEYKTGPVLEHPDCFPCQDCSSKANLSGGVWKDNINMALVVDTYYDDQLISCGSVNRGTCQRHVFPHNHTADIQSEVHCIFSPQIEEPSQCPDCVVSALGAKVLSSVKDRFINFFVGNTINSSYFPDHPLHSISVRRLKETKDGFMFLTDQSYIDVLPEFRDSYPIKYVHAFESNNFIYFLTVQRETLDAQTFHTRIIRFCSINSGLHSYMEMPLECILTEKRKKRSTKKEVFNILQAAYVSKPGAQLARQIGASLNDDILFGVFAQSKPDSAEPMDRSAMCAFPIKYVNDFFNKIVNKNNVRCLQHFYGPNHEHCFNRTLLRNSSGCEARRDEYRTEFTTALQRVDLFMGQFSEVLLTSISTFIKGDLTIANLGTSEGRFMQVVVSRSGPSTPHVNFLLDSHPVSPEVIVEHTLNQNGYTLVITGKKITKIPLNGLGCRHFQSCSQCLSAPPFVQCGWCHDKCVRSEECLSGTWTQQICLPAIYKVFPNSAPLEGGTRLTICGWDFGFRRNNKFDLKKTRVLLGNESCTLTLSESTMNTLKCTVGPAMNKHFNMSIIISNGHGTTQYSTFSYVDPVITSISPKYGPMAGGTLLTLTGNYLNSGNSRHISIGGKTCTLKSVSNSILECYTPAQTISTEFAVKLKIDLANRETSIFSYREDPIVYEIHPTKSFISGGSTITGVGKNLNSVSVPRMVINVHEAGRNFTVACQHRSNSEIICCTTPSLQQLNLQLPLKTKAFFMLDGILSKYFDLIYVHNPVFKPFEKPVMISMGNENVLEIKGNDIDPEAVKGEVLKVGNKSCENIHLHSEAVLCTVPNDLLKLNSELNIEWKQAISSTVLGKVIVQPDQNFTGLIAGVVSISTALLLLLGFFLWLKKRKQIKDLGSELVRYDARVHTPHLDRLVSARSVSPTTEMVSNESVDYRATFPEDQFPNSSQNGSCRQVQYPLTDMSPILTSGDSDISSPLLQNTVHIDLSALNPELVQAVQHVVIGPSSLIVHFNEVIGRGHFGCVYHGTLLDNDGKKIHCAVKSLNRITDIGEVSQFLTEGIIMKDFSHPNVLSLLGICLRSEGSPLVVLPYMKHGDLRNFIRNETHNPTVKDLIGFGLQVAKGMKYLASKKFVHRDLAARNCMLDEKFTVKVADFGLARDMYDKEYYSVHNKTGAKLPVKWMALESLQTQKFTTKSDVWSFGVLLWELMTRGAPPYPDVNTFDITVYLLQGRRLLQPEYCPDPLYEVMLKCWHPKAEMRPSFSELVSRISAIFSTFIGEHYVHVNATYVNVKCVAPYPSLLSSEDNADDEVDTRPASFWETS
Description: Kinase inhibition assay (33P transfer), c-Met. The note with it: Table 2, kinase inhibition class; read-out: Met-1. The gist of the method: as §2

The target in a further assay is T9, PDGFRB (Homo sapiens, UniProt P09619).
T9 construct: Kinases are expressed as either kinase domains or full length constructs; made in house
As to the kind of experiment: Kinase inhibition assay (33P transfer), PDGFRB. The note with it: read-out: PDGFRB-1.

The target of the next assay is T10, Kdr (Homo sapiens, UniProt P35968).
T10 construct: Kinases are expressed as either kinase domains or full length constructs; made in house
T10 sequence (P35968 20-1356, species assumed): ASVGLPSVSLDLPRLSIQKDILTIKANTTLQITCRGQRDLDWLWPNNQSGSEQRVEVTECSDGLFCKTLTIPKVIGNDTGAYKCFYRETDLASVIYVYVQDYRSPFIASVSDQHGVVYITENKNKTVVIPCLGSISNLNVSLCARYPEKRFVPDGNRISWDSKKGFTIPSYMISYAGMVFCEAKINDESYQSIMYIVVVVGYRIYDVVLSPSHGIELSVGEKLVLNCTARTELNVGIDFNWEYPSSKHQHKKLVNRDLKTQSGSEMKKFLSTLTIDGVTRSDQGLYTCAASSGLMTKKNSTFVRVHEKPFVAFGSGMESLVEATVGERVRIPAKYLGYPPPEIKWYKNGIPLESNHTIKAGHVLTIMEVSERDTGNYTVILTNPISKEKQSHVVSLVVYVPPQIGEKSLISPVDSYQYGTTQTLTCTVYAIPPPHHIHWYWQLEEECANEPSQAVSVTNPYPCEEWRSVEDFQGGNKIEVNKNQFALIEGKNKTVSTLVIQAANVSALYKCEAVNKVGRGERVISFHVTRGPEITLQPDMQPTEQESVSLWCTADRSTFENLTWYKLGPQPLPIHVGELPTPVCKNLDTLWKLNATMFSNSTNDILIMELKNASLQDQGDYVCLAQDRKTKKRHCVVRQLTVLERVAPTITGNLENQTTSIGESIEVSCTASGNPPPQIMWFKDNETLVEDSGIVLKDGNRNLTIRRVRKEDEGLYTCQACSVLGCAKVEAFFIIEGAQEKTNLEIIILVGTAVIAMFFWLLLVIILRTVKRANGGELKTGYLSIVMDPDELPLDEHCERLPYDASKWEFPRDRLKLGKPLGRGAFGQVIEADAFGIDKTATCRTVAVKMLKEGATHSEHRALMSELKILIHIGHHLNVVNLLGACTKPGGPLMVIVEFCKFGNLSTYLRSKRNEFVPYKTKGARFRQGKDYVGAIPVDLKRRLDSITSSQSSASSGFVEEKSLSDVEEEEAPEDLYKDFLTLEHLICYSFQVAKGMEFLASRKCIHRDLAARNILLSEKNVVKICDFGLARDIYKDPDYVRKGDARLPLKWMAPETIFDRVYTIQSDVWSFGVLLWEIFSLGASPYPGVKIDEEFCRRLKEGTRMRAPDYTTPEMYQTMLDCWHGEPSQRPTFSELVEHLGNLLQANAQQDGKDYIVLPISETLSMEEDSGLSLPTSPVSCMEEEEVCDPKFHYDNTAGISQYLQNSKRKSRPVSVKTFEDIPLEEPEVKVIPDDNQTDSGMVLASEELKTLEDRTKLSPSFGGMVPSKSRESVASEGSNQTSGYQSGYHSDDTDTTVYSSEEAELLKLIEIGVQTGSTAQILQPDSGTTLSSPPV
As to the kind of experiment: Kinase inhibition assay (33P transfer), Kdr. Conditions: read-out: KDR-1. In outline:
as §1

T5 sequence (P06239 whole entry, species assumed, the tested form may be a part): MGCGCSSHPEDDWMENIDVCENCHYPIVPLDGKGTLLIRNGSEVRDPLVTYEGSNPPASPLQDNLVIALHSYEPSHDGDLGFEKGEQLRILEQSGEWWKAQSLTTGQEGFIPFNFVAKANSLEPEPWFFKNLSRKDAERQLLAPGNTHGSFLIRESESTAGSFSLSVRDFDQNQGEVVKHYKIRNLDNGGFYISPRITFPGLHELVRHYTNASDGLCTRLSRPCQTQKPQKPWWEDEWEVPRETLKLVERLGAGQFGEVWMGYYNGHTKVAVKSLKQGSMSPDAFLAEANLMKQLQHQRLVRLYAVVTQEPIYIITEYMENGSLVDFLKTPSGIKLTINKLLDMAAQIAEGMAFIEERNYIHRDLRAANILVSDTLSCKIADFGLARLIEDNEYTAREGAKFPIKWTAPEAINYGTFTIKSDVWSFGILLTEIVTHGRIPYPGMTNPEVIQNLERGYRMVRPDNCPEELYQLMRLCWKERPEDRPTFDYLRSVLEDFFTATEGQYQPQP
T1 sequence (Q9Y243 whole entry, the tested form may be a part): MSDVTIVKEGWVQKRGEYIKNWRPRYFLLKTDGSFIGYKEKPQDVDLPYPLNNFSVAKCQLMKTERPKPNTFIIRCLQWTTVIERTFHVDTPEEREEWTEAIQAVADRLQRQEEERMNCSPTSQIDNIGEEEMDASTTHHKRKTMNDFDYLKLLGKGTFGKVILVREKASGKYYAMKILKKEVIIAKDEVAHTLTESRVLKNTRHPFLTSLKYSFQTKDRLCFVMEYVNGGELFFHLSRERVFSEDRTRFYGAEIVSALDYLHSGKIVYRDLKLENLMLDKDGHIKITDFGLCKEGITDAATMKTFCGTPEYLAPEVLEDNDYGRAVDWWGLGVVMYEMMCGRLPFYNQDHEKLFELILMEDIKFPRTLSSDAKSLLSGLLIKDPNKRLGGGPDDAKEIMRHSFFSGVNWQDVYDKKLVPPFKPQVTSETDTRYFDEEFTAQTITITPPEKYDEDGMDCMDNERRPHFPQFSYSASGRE

As to `CC(C)(C)c1cc(Nc2ncnc(Nc3cccc(Cl)c3)n2)[nH]n1` [Compound 1007], the IC50 is more than 13.1 µM on AKT; 1.16 to 6.98 µM at ErbB2; less than 1.16 µM against IGFR-1; more than 13.1 µM at Zap-70; 1.16 to 6.98 µM on Lck; 1.16 to 6.98 µM on Itk. The IC50 on EGFR was less than 1.16 µM; at c-Met it was 1.16 to 6.98 µM; on PDGFRB, more than 13.1 µM; on Kdr, 1.16 to 6.98 µM.
Consider `CN(c1cccc(Cl)c1)c1ncnc(Nc2ccc(NC(=O)OC(C)(C)C)cc2)n1` [Compound 750], for which the IC50 was more than 10.5 µM at AKT; 5.62 to 8.2 µM on ErbB2; more than 10.5 µM against IGFR-1; more than 10.5 µM on Zap-70; 0.937 to 5.62 µM at Lck; more than 10.5 µM on Itk. Besides, the IC50 on EGFR is less than 0.937 µM; on c-Met it was 5.62 to 8.2 µM; on PDGFRB, more than 10.5 µM; at Kdr, more than 10.5 µM.
In the case of `COc1ccc(Nc2ncnc(N(C)c3cccc(Cl)c3)n2)cc1` [Compound 743], the IC50 on AKT, on ErbB2, against IGFR-1, at Zap-70, at Lck and on Itk was more than 13.2 µM throughout. Besides, the IC50 was less than 1.17 µM on EGFR, more than 13.2 µM at c-Met, more than 13.2 µM on PDGFRB and more than 13.2 µM on Kdr.
`COC(=O)Cc1cccc(Nc2ncnc(-n3c(N)nc4ccccc43)n2)c1` [Compound 546]: the IC50 at AKT was 9.32 to 12 µM; on ErbB2, 6.39 to 9.32 µM; against IGFR-1, less than 1.07 µM; at Zap-70, 9.32 to 12 µM; at Lck, 1.07 to 6.39 µM; at Itk it was 1.07 to 6.39 µM. For the same compound, the IC50 was 6.39 to 9.32 µM on EGFR, 6.39 to 9.32 µM at c-Met, 1.07 to 6.39 µM on PDGFRB and less than 1.07 µM at Kdr.
On to `O=C(O)Cc1cccc(Nc2ncnc(Nc3cccc(Br)c3)n2)c1` [Compound 541], for which the IC50 at AKT was more than 11.2 µM; on ErbB2, less than 0.999 µM; against IGFR-1 it was 0.999 to 6 µM; at Zap-70, more than 11.2 µM; on Lck, more than 11.2 µM; on Itk it was 8.74 to 11.2 µM. In addition, the IC50 on EGFR was less than 0.999 µM; at c-Met, 8.74 to 11.2 µM; on PDGFRB, 0.999 to 6 µM; at Kdr it was 0.999 to 6 µM.
Turning to `COc1cc(Nc2ncnc(Nc3cc(-c4ccc(Cl)c(Cl)c4)n[nH]3)n2)cc(OC)c1OC` [Compound 589], the IC50 was more than 9.21 µM on AKT; 4.91 to 7.17 µM on ErbB2; less than 0.819 µM against IGFR-1; more than 9.21 µM at Zap-70; 0.819 to 4.91 µM on Lck; 4.91 to 7.17 µM on Itk. Further, the IC50 at EGFR was 4.91 to 7.17 µM; on c-Met, 7.17 to 9.21 µM; on PDGFRB it was more than 9.21 µM; at Kdr, 0.819 to 4.91 µM.
Take `COc1ccc(N(C)c2ncnc(-n3c(N)nc4ccccc43)n2)cc1` [Compound 663]: the IC50 on AKT, on ErbB2, against IGFR-1, on Zap-70, on Lck and on Itk was more than 13 µM in each case. The IC50 was more than 13 µM on EGFR, more than 13 µM on c-Met, more than 13 µM on PDGFRB and 6.91 to 10.1 µM on Kdr.
As for `c1ccc(Cn2ncc3cc(Nc4ncnc(Nc5ccc(N6CCCCC6)cc5)n4)ccc32)cc1` [Compound 735], the IC50 is 5.04 to 7.34 µM on AKT; 0.839 to 5.04 µM on ErbB2; 7.34 to 9.44 µM on IGFR-1; 5.04 to 7.34 µM at Zap-70; more than 9.44 µM on Lck; 7.34 to 9.44 µM on Itk. Besides, the IC50 is less than 0.839 µM at EGFR, 7.34 to 9.44 µM on c-Met, more than 9.44 µM at PDGFRB and 0.839 to 5.04 µM at Kdr.
In the case of `COc1ccc(Nc2ncnc(N(C)c3cccc(Cl)c3)n2)cc1OC` [Compound 621], the IC50 is more than 12.1 µM at AKT; less than 1.08 µM on ErbB2; 6.45 to 9.41 µM against IGFR-1; more than 12.1 µM on Zap-70; 1.08 to 6.45 µM on Lck; more than 12.1 µM at Itk. The IC50 at EGFR was less than 1.08 µM; on c-Met, 1.08 to 6.45 µM; on PDGFRB it was 1.08 to 6.45 µM; at Kdr it was 1.08 to 6.45 µM.
Turning to `COc1cc(Nc2ncnc(-n3c(NCc4ncc[nH]4)nc4ccccc43)n2)cc(OC)c1OC` [Compound 583], the IC50 at AKT was more than 9.5 µM; at ErbB2 it was more than 9.5 µM; against IGFR-1, 0.845 to 5.07 µM; on Zap-70, more than 9.5 µM; on Lck, 0.845 to 5.07 µM; at Itk, 0.845 to 5.07 µM. In addition, the IC50 at EGFR was more than 9.5 µM; on c-Met, more than 9.5 µM; at PDGFRB it was 0.845 to 5.07 µM; at Kdr it was 5.07 to 7.39 µM.
`COC(=O)c1ccc(-c2cc(Nc3ncnc(Nc4cccc(C(N)=O)c4)n3)[nH]n2)cc1` [Compound 990]: the IC50 at AKT is more than 10.5 µM; at ErbB2, more than 10.5 µM; against IGFR-1, 0.929 to 5.58 µM; at Zap-70 it was more than 10.5 µM; at Lck it was more than 10.5 µM; on Itk it was 5.58 to 8.13 µM. Also, the IC50 on EGFR was more than 10.5 µM; at c-Met, 5.58 to 8.13 µM; on PDGFRB, more than 10.5 µM; on Kdr, more than 10.5 µM.
In the case of `COc1cc(Nc2ncnc(-c3cccnc3Cl)n2)cc(OC)c1OCCN1CCOCC1` [Compound 565], the IC50 at AKT is more than 9.52 µM; on ErbB2 it was more than 9.52 µM; against IGFR-1, more than 9.52 µM; on Zap-70, more than 9.52 µM; at Lck, 0.846 to 5.07 µM; at Itk, more than 9.52 µM. For the same compound, the IC50 on EGFR was more than 9.52 µM; at c-Met, more than 9.52 µM; on PDGFRB, 0.846 to 5.07 µM; on Kdr, 5.07 to 7.4 µM.
In the case of `COc1ccc(Nc2ncnc(NCc3c(C)cccc3Cl)n2)cc1OC` [Compound 791], the IC50 at AKT was more than 11.7 µM; on ErbB2, 6.22 to 9.07 µM; against IGFR-1, more than 11.7 µM; at Zap-70 it was more than 11.7 µM; at Lck it was more than 11.7 µM; at Itk, more than 11.7 µM. For the same compound, the IC50 on EGFR, at c-Met, on PDGFRB and on Kdr was more than 11.7 µM throughout.
As for `CC(=O)NS(=O)(=O)c1ccc(Nc2ncnc(N(C)c3cccc(Cl)c3)n2)cc1` [Compound 751], the IC50 at AKT is more than 10.4 µM; on ErbB2, more than 10.4 µM; at IGFR-1, more than 10.4 µM; on Zap-70, more than 10.4 µM; on Lck, 5.54 to 8.09 µM; at Itk, more than 10.4 µM. The IC50 at EGFR is less than 0.924 µM; at c-Met, more than 10.4 µM; on PDGFRB, 0.924 to 5.54 µM; at Kdr it was 0.924 to 5.54 µM.

For the origin of these results see patent US7074789B2, “Kinase inhibitors” (Amgen Inc., priority 1999, dated 2006).
